Laboratory results reported in patent US9018196B2, “Development of a new formulation overcoming thymus atrophy with concomitantly enhancement of anti-inflammatory effect of dexamethasone” (Macau University of Science and Technology, priority 2013, dated 2015).

Assays:
Type in all cases: in vivo, Balb/c mice
[1] = test system: mononuclear cell infiltrate in the ear; assay: Histological examination of ear inflammation; settings: DNFB-treated mice, ear histology
Protocol: (§1) Male Balb/c mice, weighing 19-21 g were sensitized through topical application of 20 μl of 0.5% (v/v) DNFB in acetone onto the shaved abdomen on days 1 and 2. Challenge was then preformed on day 6 by applying DNFB (20 μl, 0.5%, v/v) on the left inner and outer ear surfaces of mice. DMY (at dosage of 1 mg/ear) and/or DEX (1.5625 μg/ml) dissolved in acetone was topically applied (20 μl) to the ears at 2nd, 24th, 48th, 72nd, hour after the challenge. The edema was calculated as the difference between the thickness of left and right ear at the 24th, 48th and 72nd h after challenge. […] The control 100 group was treated only with DNFB or solvent solution.
(§2) The animal model was conducted as mentioned in section 1.1 of Example 1 above. […] Antigens were retrieved by steaming samples in DAKO target retrieval buffer (DAKO) for 20 minutes. After the nonspecific binding sites were blocked, the sections were incubated overnight at 4° C. with CD4 or CD8 antibodies (Phoenix Pharmaceuticals).
(§3) Sections were stained with 3,3′-diaminobenzidine substrate and counterstained with Meyer hematoxylin and eosin.

[2] = test system: ear edema of DTH mice induced by DNFB; assay: Delay-type hypersensitivity test (DTHT) in mice: ear edema; settings: topical, DMY 1 mg/ear and/or DEX 1.5625 μg/ml, 24th, 48th, 72nd h after challenge, vs Model Group
Protocol: as §1
FIGS. 1a and 1b show the effects of DEX, DMY and the combinational application of DMY and DEX (illustrated as the DMY+DEX group) on treatment of ear edema of DTH mice induced by DNFB. Edema as expressed as the increase in ear thickness (ΔT in micrometer±S.E.M.) in the DNFB experiments. Percentages of inhibition (% I) for each measurement were calculated from values for the DEX, DMY and DMY+ DEX groups with respect to those for the Model Group. Statistically significant differences with respect to the Model Group are expressed as *P<0.05 and **P<0.01 (Dunnett's t test).
The animal model was conducted as mentioned in section 1.1 of Example 1 above. […]

[3] = test system: signal-joint TRECs in thymocytes; assay: Quantification of signal-joint TRECs; settings: compared with the DEX-treated animals
Protocol: as §1
DNA was isolated from purified thymic T cells using DNA purification kit. PCR was performed using mδRec- and ψJα-specific primers and an mδRec-ψJα fluorescent probe as described previously. The standard curves for murine TRECs were generated using a mδRec-ψJα TREC PCR product cloned into a pc DNA3.1 plasmid from Prof. Gregory D. Sempowski (Duke Human Vaccine Institute, Duke University Medical Center, Durham, N.C., USA.). The assay was performed on slides according to previous study.

[4] = test system: CD4+ and CD8+ cells in the ears; assay: Immunohistochemical staining of CD4 and CD8 in ear sections; settings: immunohistochemical analysis; in comparison with the Model Group
Protocol: as §1, §2, §3

thymic architecture = assay: Histological examination of thymus; settings: compared with DEX-treated animals
Protocol: as §1

CD4+CD8+ thymocytes = assay: Flow cytometry assay for detection of CD4 and CD8 expression in thymocytes; settings: DNFB-induced DTH mice, topical application; control and model groups about 76%
Protocol: as §1
The animal model was conducted as mentioned in section 1.1 of Example 1 above, in which after the mice were sacrificed by cervical dislocation, the thymocytes were isolated and washed by PBS. The cells were stained by 20 μL CD4 with CD8 for 30 min avoiding from light, followed by 4% PFA to fix the cells, and flow cytometery was then conducted.

thymocytes = assay: Flow cytometry assay for detection of thymocyte apoptosis (Annexin V-FITC and PI); settings: DNFB-induced DTH mice, model group about 72%
Protocol: The animal model was conducted as mentioned in section 1.1 of Example 1 above. Thymocytes were washed by cold PBS and binding buffer, resuspended in binding buffer including Annexin V-FITC, and then incubated at room temperature for 10 minutes. After adding the binding buffer containing PI, the cells were incubated on ice for another 15 minutes. The data was analyzed by flow cytometry within one hour.

Row | Compound | number of inflammatory cells in the ear [1] | effect on ear edema (increase in ear thickness, percentages of inhibition) [2] | levels of signal-joint TRECs in thymocytes [3] | accounts of CD4+ and CD8+ cells in the treated ears [4] | thymic architecture (corticomedullary junctions) (thymic architecture) | CD4+CD8+ T cell population in thymus (CD4+CD8+ thymocytes) | ratio of thymocyte apoptosis (thymocytes)
1 | O=C1c2c(O)cc(O)cc2O[C@H](c2cc(O)c(O)c(O)c2)[C@H]1O [DMY, dihydromyricetin] | could be significantly reduced | could inhibit ear edema | could increase the levels of signal-joint TRECs | shown to reduce the accounts of CD4+ and CD8+ cells | significantly improve the thymic architecture |  | 
2 | C[C@@H]1C[C@H]2[C@@H]3CCC4=CC(=O)C=C[C@]4(C)[C@@]3(F)[C@@H](O)C[C@]2(C)[C@@]1(O)C(=O)CO [DEX, dexamethasone] |  |  |  |  |  | 54.7% | 77.9%
